Reference: patent US20230257393A1, “MACROMOLECULE-SUPPORTED THIENOAZEPINE COMPOUNDS, AND USES THEREOF” (BOLT BIOTHERAPEUTICS, INC., priority 2020, published 2023)
Like-named read-outs stand apart in the source and are kept apart here.

Legend:
human TLR8 = target: T1, human TLR8 (Homo sapiens, UniProt Q9NR97); assay: HEK Reporter Assay, HEK293 NFKB reporter cells expressing human TLR8; format: cell-based; conditions: read-out: HEK293 hTLR8 EC50
T1 construct: host or cells: HEK293 reporter cells
T1 sequence (Q9NR97 27-1041): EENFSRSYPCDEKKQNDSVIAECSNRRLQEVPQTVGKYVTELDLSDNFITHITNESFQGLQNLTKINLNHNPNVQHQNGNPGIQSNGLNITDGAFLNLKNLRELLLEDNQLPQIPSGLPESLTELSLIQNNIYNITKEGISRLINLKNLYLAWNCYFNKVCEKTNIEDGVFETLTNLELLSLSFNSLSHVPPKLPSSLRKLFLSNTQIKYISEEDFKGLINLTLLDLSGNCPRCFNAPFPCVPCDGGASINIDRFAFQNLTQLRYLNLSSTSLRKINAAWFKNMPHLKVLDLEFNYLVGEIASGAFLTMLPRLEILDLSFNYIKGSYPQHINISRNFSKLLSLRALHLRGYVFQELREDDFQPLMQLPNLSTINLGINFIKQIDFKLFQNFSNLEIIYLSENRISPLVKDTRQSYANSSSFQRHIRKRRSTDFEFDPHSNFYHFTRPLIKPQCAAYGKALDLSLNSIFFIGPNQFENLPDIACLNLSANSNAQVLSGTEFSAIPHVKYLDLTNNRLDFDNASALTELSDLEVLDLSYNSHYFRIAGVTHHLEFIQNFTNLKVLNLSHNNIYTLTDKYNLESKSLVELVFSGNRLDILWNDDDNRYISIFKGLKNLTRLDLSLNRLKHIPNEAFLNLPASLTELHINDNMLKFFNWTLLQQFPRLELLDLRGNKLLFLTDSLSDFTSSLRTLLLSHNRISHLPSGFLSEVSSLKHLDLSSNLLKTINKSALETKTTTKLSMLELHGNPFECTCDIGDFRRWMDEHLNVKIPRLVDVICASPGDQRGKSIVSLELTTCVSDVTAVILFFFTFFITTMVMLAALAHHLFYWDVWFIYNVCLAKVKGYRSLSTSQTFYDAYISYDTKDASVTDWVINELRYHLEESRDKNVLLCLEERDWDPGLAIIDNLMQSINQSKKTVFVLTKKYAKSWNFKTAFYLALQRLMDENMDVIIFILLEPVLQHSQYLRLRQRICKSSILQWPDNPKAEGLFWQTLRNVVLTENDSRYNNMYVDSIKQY
Protocol: (§1) Each compound was synthesized, purified, and characterized by mass spectrometry and shown to have the mass indicated. Additional experimental procedures are found in the Examples. Activity against HEK293 NFKB reporter cells expressing human TLR7 or human TLR8 was measured according to Example 202.
(§2) HEK293 reporter cells expressing human TLR7 or human TLR8 were purchased from Invivogen and vendor protocols were followed for cellular propagation and experimentation. Briefly, cells were grown to 80-85% confluence at 5% CO2 in DMEM supplemented with 10% FBS, Zeocin, and Blasticidin. Cells were then seeded in 96-well flat plates at 4×10^4 cells/well with substrate containing HEK detection medium and immunostimulatory molecules. Activity was measured using a plate reader at 620-655 nm wavelength.

human TLR7 = target: T2, human TLR7 (Homo sapiens, UniProt Q9NYK1); assay: HEK Reporter Assay, HEK293 NFKB reporter cells expressing human TLR7; format: cell-based; conditions: read-out: HEK293 hTLR7 EC50
T2 construct: host or cells: HEK293 reporter cells
T2 sequence (Q9NYK1 27-1049): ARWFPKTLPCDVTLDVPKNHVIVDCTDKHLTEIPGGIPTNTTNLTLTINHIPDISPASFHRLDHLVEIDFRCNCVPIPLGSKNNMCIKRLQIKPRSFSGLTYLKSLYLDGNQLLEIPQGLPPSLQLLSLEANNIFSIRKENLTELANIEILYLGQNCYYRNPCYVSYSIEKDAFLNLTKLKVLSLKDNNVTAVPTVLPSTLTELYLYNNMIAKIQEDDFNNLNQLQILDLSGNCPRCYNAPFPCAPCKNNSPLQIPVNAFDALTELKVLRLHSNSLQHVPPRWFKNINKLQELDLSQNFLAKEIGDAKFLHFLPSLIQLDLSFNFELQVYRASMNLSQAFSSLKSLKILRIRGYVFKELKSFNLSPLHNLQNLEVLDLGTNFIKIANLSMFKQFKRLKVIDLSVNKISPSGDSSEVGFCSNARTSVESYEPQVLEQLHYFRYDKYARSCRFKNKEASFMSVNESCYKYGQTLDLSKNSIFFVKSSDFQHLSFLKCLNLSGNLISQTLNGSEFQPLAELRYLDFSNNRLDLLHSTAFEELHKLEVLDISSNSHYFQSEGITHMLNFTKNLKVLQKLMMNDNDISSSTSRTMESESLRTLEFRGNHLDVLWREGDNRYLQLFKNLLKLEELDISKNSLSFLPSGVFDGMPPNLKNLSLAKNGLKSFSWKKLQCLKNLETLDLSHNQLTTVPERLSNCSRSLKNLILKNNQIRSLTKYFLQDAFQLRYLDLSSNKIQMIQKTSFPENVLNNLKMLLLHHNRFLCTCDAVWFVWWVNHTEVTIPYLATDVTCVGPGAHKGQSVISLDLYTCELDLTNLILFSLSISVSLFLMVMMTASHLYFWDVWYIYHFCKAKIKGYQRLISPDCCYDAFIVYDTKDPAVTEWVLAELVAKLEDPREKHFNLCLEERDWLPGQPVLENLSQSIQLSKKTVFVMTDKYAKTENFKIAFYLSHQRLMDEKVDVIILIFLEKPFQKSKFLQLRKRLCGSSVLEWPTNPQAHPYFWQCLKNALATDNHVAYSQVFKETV
Protocol: as §1, §2

Compound: CCCN(CCC)C(=O)C1=Cc2sc(C(=O)Nc3cncnc3)cc2N=C(N)C1 [TAZ-27, 5-amino-N7,N7-dipropyl-N2-pyrimidin-5-yl-6H-thieno[3,2-b]azepine-2,7-dicarboxamide]
- EC50 (human TLR8; Table 1a): > 9 µM
- EC50 (human TLR7; Table 1a): > 9 µM

Compound: CCCN(CCC)C(=O)C1=Cc2sc3ccccc3c2N=C(N)C1 [TAZ-28, 2-amino-N,N-dipropyl-3H-benzo[4,5]thieno[3,2-b]azepine-4-carboxamide]
- EC50 (human TLR8; Table 1a): > 9 µM
- EC50 (human TLR7; Table 1a): > 9 µM

Compound: CCCN(Cc1ccc(CNC(=O)OC(C)(C)C)cc1)C(=O)C1=Cc2sccc2N=C(N)C1 [TAZ-29, tert-butyl (4-((5-amino-N-propyl-6H-thieno[3,2-b]azepine-7-carboxamido)methyl)benzyl)carbamate]
- EC50 (human TLR8; Table 1a): > 9 µM
- EC50 (human TLR7; Table 1a): > 9 µM

Compound: CCCN(CCCc1ccc(CN2CCNCC2)cc1)C(=O)C1=Cc2sccc2N=C(N)C1 [TAZ-37]
- EC50 (human TLR8; Table 1b): 2.94 µM
- EC50 (human TLR7; Table 1b): > 9 µM

Compound: CCCN(OCC)C(=O)C1=Cc2sc(COCCCN)cc2N=C(N)C1 [TAZ-73]
- EC50 (human TLR8; Table 1b): 2.98 µM
- EC50 (human TLR7; Table 1b): > 9 µM

Compound: CCCN(CCC)C(=O)C1=Cc2sc(COCCNC(=O)OC(C)(C)C)cc2N=C(N)C1 [TAZ-80]
- EC50 (human TLR8; Table 1b): 3.79 µM
- EC50 (human TLR7; Table 1b): 4 µM

Compound: CN(C)Cc1ccc(CN(CCC(F)(F)F)C(=O)C2=Cc3sc(CCCCCN)cc3N=C(N)C2)cc1 [TAZ-117]
- EC50 (human TLR8; Table 1c): ≥ 9 µM
- EC50 (human TLR7; Table 1c): ≥ 9 µM

Compound: CCCN(CCC)C(=O)C1=Cc2sc(CC(=O)NCCN)cc2N=C(N)C1 [TAZ-120]
- EC50 (human TLR8; Table 1c): ≥ 9 µM
- EC50 (human TLR7; Table 1c): ≥ 9 µM

Compound: CCCN(Cc1cnc(CN(C)C)c(C(F)(F)F)c1)C(=O)C1=Cc2sc(CCCCCNC(=O)OC(C)(C)C)cc2N=C(N)C1 [TAZ-128]
- EC50 (human TLR8; Table 1c): ≥ 9 µM
- EC50 (human TLR7; Table 1c): ≥ 9 µM

Compound: CCCN(Cc1ccc(CN(C)C)c(C(F)(F)F)n1)C(=O)C1=Cc2sc(CCCCCNC(=O)OC(C)(C)C)cc2N=C(N)C1 [TAZ-146]
- EC50 (human TLR8; Table 1c): ≥ 9 µM
- EC50 (human TLR7; Table 1c): ≥ 9 µM

Compound: CCCN(CCCNC(=O)OC1CCC1)C(=O)C1=Cc2sc(C#CC3CNC3)cc2N=C(N)C1 [TAZ-192]
- EC50 (human TLR8; Table 1c): 3.48 µM
- EC50 (human TLR7; Table 1c): 0.824 µM

Compound: CCCN(OCC)C(=O)C1=Cc2sc(C#CC3CNC3)cc2N=C(N)C1 [TAZ-193]
- EC50 (human TLR8; Table 1c): 1.52 µM
- EC50 (human TLR7; Table 1c): 3.36 µM

Compound: CCCN(OCC)C(=O)C1=Cc2sc(CN3CCN(c4ccc(C(=O)OC(C)(C)C)cc4)CC3)cc2N=C(N)C1 [TAZ-205]
- EC50 (human TLR8; Table 1c): ≥ 9 µM
- EC50 (human TLR7; Table 1c): ≥ 9 µM

Compound: CCCN(OCC)C(=O)C1=Cc2sc(CN3CC4(CNC4)C3)cc2N=C(N)C1 [TAZ-207]
- EC50 (human TLR8; Table 1c): ≥ 9 µM
- EC50 (human TLR7; Table 1c): ≥ 9 µM

Compound: CCCN(OCC)C(=O)C1=Cc2sc(CN3CCCN(C(=O)OC(C)(C)C)CC3)cc2N=C(N)C1 [TAZ-226]
- EC50 (human TLR8; Table 1c): 4.43 µM
- EC50 (human TLR7; Table 1c): 0.436 µM

Compound: CCCN(OCC)C(=O)C1=Cc2sc(CN3CCC(c4ccc(C(=O)OC)cc4)CC3)cc2N=C(N)C1 [TAZ-229]
- EC50 (human TLR8; Table 1c): ≥ 9 µM
- EC50 (human TLR7; Table 1c): ≥ 9 µM

Compound: CCCN(OCC)C(=O)C1=Cc2sc(CN3C[C@H]4C[C@@H]3CN4)cc2N=C(N)C1 [TAZ-235]
- EC50 (human TLR8; Table 1c): 3.05 µM
- EC50 (human TLR7; Table 1c): 4.57 µM

Compound: CCONC(=O)C1=Cc2sc(CC3CNC3)cc2N=C(N)C1 [TAZ-250]
- EC50 (human TLR8; Table 1c): ≥ 9 µM
- EC50 (human TLR7; Table 1c): ≥ 9 µM
